These results are taken from patent US5627191A, “Therapeutic agents” (The Boots Company PLC, priority 1992, dated 1997).

Counter-ions that a name gives are not always drawn.

In series [1] the target is T1, adrenal membrane angiotensin II receptor (Oryctolagus cuniculus, UniProt P34976).
T1 construct: Aliquots of rabbit adrenal membranes containing 10-30 μg protein were incubated; from tissue; host or cells: adrenal gland membranes of male New Zealand white rabbits
T1 sequence (P34976 1-359): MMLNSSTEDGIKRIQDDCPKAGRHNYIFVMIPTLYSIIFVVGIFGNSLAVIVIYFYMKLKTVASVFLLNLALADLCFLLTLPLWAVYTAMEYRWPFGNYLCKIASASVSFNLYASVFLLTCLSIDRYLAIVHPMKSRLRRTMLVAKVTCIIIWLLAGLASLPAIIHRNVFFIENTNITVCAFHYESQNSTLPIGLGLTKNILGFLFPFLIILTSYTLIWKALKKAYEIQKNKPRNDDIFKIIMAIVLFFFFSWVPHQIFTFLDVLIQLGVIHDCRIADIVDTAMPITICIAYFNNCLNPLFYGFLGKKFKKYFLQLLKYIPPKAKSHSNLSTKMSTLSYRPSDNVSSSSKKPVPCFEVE
As to the kind of experiment: Test A: binding affinity to the adrenal membrane angiotensin II receptor in vitro. The following applies: rabbit adrenal membranes, 0.05 nM [^125 I]angiotensin II, 60 minutes at 25° C.; read-out: Ki from Test A. Also noted: species or system rabbit (male New Zealand white). On the procedure: In test A the binding affinity of compounds to the adrenal membrane angiotensin II receptor was determined in vitro and in tests B and C the antihypertensive effect of the compounds was measured in vivo. A detailed description of the tests follows. Test A 1) Preparation of Membranes Adrenal glands from male New Zealand white rabbits were homogenised on ice in 20 mM aqueous sodium bicarbonate solution containing 50 μM PMSF (phenylmethanesulphonyl fluoride) (2 ml/g wet weight) using a Polytron (Trademark) homogeniser for 3×15 seconds at setting 8. The homogenate was centrifuged at 900 g for 10 minutes at 4° C. and the pellet was discarded. The supernatant was recentrifuged at 30000 g for 30 minutes at 4° C., and the resulting pellet was resuspended in assay buffer (50 mM Tris-HCl, pH 7.4, containing 1 mM EDTA, 6.5 mM MgCl2, 125 mM NACl, 50 μM PMSF, 5 μg/ml pepstatin and 50 μg/ml each of leupeptin, antipain, aprotinin and chymostatin): 10 ml per g original tissue wet weight. Polyethylene glycol was added (final concentration 30%) as a cryopreservant and the membrane preparation divided into aliquots and stored at -80° C. until required. Protein was determined by a modification of the method of Lowry (Markwell et al, (1978) Anal. Biochem., 87: 206-210). 2) Binding Assay Aliquots of rabbit adrenal membranes containing 10-30 μg protein were incubated with 0.05 nM [^125 I]angiotensin II in the presence or absence of potential angiotensin II antagonists in 1 ml polyamide tubes in a total volume of 200 μI assay buffer. After incubation for 60 minutes am 25° C. the reaction was terminated by the addition of ice-cold assay buffer, and the bound and free radioactivity was separated through Skatron (Trademark) receptor-binding filters, pre-wetted with assay buffer, using a Skatron cell harvester. The filters were washed with ice-cold phosphate buffered saline, dried, and the trapped radioactivity was determined using a gamma counter. Non-specific binding, measured in the presence of 2 μM unlabelled angiotensin II, was subtracted from total binding to obtain specific binding. Radioligand binding curves were analysed using EBDA and LIGAND (Cambridge Biosoft). Values for binding affinity were obtained by nonlinear regression analysis of untransformed data. The activities of the compounds described in the Examples given hereinafter are set out below in Table A, Column 1.

Series [2] in a line: Hygroscopicity observed in preparation. It counts as physicochemical. The following applies: dried before use by heating in vacuo.
Series [3] deals with Aoki-Okamoto strain of spontaneously hypertensive rat. As to the kind of experiment: Test C: oral antihypertensive effect after pretreatment with bendrofluazide, threshold dose. It counts as in vivo. To be noted: pretreated with bendrofluazide 10 mg/kg at 16 hours and 2 hours prior to dose. On the procedure:
(§1) In test A the binding affinity of compounds to the adrenal membrane angiotensin II receptor was determined in vitro and in tests B and C the antihypertensive effect of the compounds was measured in vivo. A detailed description of the tests follows.
(§2) Female rats, weight range 180-240 g, of the Aoki-Okamoto strain of spontaneously hypertensive rat were used. The rats in groups of four were fasted overnight before administration of the test compound. Blood pressure was determined in the following way. The rats were placed in a cabinet kept at 38° C. with their tails protruding through holes in the cabinet. After 30 minutes in the cabinet blood pressure was measured using an inflatable cuff placed round the base of the mail and arterial pulsations monitored with a pneumatic pulse transducer. […] The pressure in the cuff at which arterial pulsations reappeared was taken as the blood pressure. The rats were removed from the cabinet and each group orally dosed with a given dose of the test compound given as a solution or suspension in 0.25% aqueous carboxymethylcellulose. In addition to the predose reading, blood pressure was measured at 1.5 and 5.0 hours after dosing. The degree of blood pressure reduction sufficient to achieve a significance level of p<0.01 compared to controls was 9% after correction for control changes at appropriate time intervals. Thus, compounds were considered to be active in this test if they produced a reduction of blood pressure after correction of 9% or greater than 9%.
(§3) Threshold antihypertensive doses of compounds of formula I were determined in the following way. Compounds were tested initially at a particular dose level, for example 90 mg/kg.
The procedure of Test B above was carried out subject to the modification of pretreating the rats with bendrofluazide 10 mg/kg (an orally administered diuretic) at 16 hours and 2 hours prior to the dose of the test compound, to ensure activation of the reninangiotensin system.
The activities of the compounds described in the Examples given hereinafter are set out below in Table A, Column 3.

The test system is the same in series [4]. As to the kind of experiment: Test B: oral antihypertensive effect, threshold dose. It counts as in vivo. To be noted: Rattus norvegicus, po, 5 h, dose giving a reduction of blood pressure of between 9 and 16% after correction, 1.5 and 5.0 hours after dosing, read-out: Threshold anti-hypertensive dose from Test B. On the procedure:
as §1, §2, §3
The activities of the compounds described in the Examples given hereinafter are set out below in Table A, Column 2.

The Ki is a dissociation constant, usually derived from enzyme kinetics or from competition with a known ligand. For `CCc1nc2c(C)cc(C)nc2n1Cc1ccc(-c2ccccc2-c2c(N(C)C)c(=O)c2=O)cc1` [Example 16, 3-dimethylamino-4-[4'-(2-ethyl-5,7-dimethyl-3H-imidazo-[4,5-b]pyrid-3-ylmethyl)biphenyl-2-yl]cyclobut-3-ene-1,2-dione], the Ki in series [1] came to 1890 nM. Besides, the hygroscopic result in series [2] is listed as “appeared to be hygroscopic”.
On to `CCc1nc2c(C)cc(C)nc2n1Cc1ccc(-c2ccccc2-c2c(OC(C)OC(=O)C(C)(C)C)c(=O)c2=O)cc1` (stereo not shown) [Example 17, 1-[2-[4'-(2-ethyl-5,7-dimethyl-3H-imidazo[4,5-b]pyrid-3-ylmethyl)biphenyl-2-yl]-3,4-dioxocyclobut-1-en-1-yloxy]ethyl pivalate 0.22 ethyl acetate solvate], for which the Ki in series [1] is 21.5 nM. The hygroscopic result in series [2] is “appeared to be hygroscopic”.
As for `CCCCN(Cc1ccc(-c2ccccc2-c2c(O)c(=O)c2=O)cc1)c1ncncc1C(=O)O` [Example 20, 4-[N-butyl-N-[2'-(2-hydroxy-3,4-dioxocyclobut-1-en-1-yl)biphenyl-4-ylmethyl]amino]pyrimidine-5-carboxylicacid 0.6 hydrochloride], the Ki in series [1] is 81.7 nM. In addition, in series [3], the “Threshold anti-hypertensive dose from Test C” value is listed as 1 mg/kg. Also, the minimal effective dose in series [4] is 3 mg/kg.
